Measured values reported in ChEMBL document CHEMBL3045192, “Medicinal chemistry of polycyclic cage compounds in drug discovery research” (Med Chem Res, 2008).
The source made the active and inactive calls. The rule behind the calls is not given here.

Key:
Influenza A virus = assay: Antiviral activity against Influenza A virus A2/Taiwan; type: functional, organism-based
Human alphaherpesvirus 2 = assay: Antiviral activity against Human herpesvirus 2; type: functional, organism-based

NC1C2C3CC4C5CC(C42)C1(c1ccccc1)C53 (racemic)
Activity (Influenza A virus): Active
Activity (Human alphaherpesvirus 2): Active
